Assay results taken from PubChem BioAssay (NCI).
Several values for one entry are separate records, joined by “and”; a condition that tells them apart may be missing. Equal entries are not always repeated.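 Where inhibition never reached the appropriate level, the endpoint shown equals the highest concentration tested. Otherwise, values were interpolated linearly from a five-concentration, 48-hour dose response in 96-well plates. The concentration for 50% growth inhibition is given as GI50. TGI: total growth inhibition.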

Experiments:
Assay in all cases: NCI-60 cell line screen, 48 h
786-0 renal = system: 786-0 renal
HCC-2998 colon = system: HCC-2998 colon
HCT-116 colon = system: HCT-116 colon
HL-60(TB) leukemia = system: HL-60(TB) leukemia
HT29 colon = system: HT29 colon
KM12 colon = system: KM12 colon
M14 melanoma = system: M14 melanoma
RXF 393 renal = system: RXF 393 renal
SF-268 CNS = system: SF-268 CNS
SNB-19 CNS = system: SNB-19 CNS

Row | SMILES | TGI (786-0 renal) | TGI (HCC-2998 colon) | TGI (HCT-116 colon) [µM] | TGI (HL-60(TB) leukemia) | TGI (HT29 colon) | TGI (KM12 colon) | TGI (M14 melanoma) | TGI (RXF 393 renal) | TGI (SF-268 CNS) [µM] | TGI (SNB-19 CNS) [µM] | GI50 (786-0 renal) | GI50 (HCC-2998 colon) [µM] | GI50 (HCT-116 colon) | GI50 (HL-60(TB) leukemia) | GI50 (HT29 colon) | GI50 (KM12 colon) | GI50 (M14 melanoma) | GI50 (RXF 393 renal) [µM] | GI50 (SF-268 CNS) | GI50 (SNB-19 CNS)
1 | CCOC(OC1=C(C#N)CCC1)C(CC)[Se]c1ccccc1 (stereo not drawn) | 28.2 µM | 83.8 µM | 57.6 | 38.4 µM | 80.5 µM | > 100 µM | 32.3 µM | 38.7 µM | 38.7 | > 100 | – | – | – | – | – | – | – | – | – | –
2 | Cc1ccc(-c2cc3nc(-c4ccccc4)nc(C(Cl)Cl)n3n2)cc1 | 2.37 µM | 1.69 µM | 1.61 | 4.06 µM | 5.32 µM | 1.96 µM | > 50 µM | 1.88 µM | 3.53 | 1.73 | 1.06 µM | 0.891 | 0.689 µM | 1.39 µM | 1.2 µM | 0.701 µM | > 50 µM | 0.845 | 1.11 µM | 0.759 µM
3 | OC1CCC(Oc2cccc3cnc(Nc4ccc5nc[nH]c5c4)nc23)CC1 (stereo not drawn) | 10.1 µM | 9.09 µM | 12 | 0.447 µM | 9.15 µM | 11.9 µM | 3.11 µM | 0.504 µM | 12.8 | 49.6 | 0.336 µM | 0.708 | 0.191 µM | 0.155 µM | 0.437 µM | 0.23 µM | 0.333 µM | 0.208 | 0.413 µM | 0.407 µM
4 | O=C(N=Nc1c(O)[nH]c2ccccc12)c1ccccc1O | > 100 µM | > 100 µM | > 100 | > 100 µM | > 100 µM | > 100 µM | > 100 µM | > 100 µM | > 100 | > 100 | – | – | – | – | – | – | – | – | – | –
5 | COc1ccc([N+](=O)[O-])c2c(NCC(O)CO)ccnc12 (stereo not drawn) | > 100 µM | > 100 µM | > 100 | > 100 µM | > 100 µM | > 100 µM | > 100 µM | > 100 µM | > 100 | > 100 | – | – | – | – | – | – | – | – | – | –
6 | CC(O)C(NC(=O)C(CS)NC(=O)C(CO)NC(=O)C(CCCCN)NC(=O)C(Cc1c[nH]c2ccccc12)NC(=O)C(Cc1ccc(O)cc1)NC(=O)C(CS)NC(=O)C(N)Cc1ccccc1)C(N)=O (stereo not drawn) | > 25 µM and 79 µM | > 25 µM and 57.7 µM | > 100 | > 25 µM and 40.5 µM | > 25 µM and 61.4 µM | > 25 µM and 58 µM | > 25 µM | > 25 µM and 36.6 µM | > 25 | 63.4 | – | – | 32.9 µM | 21.5 µM | – | – | – | 14.5 | – | –
7 | Cc1ccc2c(c1)sc(-c1ccc(N(C)C)cc1)[n+]2C | > 45.9 µM | 19 µM | > 34.6 | 10.5 µM | > 37.9 µM | 14.6 µM | > 38 µM | > 47.4 µM | 24.9 | 21 | 3.69 µM | 1.51 | 0.502 µM | 0.273 µM | 0.854 µM | 0.397 µM | 1.79 µM | 9.16 | 2.44 µM | 1.95 µM
8 | Cn1nnnc1[N-]Cc1ccccc1.[Au+].c1ccc([PH+](c2ccccc2)c2ccccc2)cc1 | 3.37 µM | 21.8 µM | 13 | 1.45 µM | 13.3 µM | 38 µM | 3.83 µM | 2.68 µM | 14 | 13.1 | 1.71 µM | 8.55 | 3.88 µM | 0.509 µM | 5.02 µM | 11.1 µM | 1.67 µM | 1.29 | 3.45 µM | 3.61 µM
9 | Cn1cnc([N+](=O)[O-])c1Sc1ncnc2nc[nH]c12 | > 100 µM | > 100 µM | > 100 | 71 µM and > 64.7 µM | > 100 µM | > 100 µM | 60.5 µM and > 100 µM | > 100 µM | > 100 | > 100 | 3.25 µM and 3.77 µM | 5.64 | 3.62 µM and 23.4 µM | 11 µM and 16.9 µM | 7.17 µM and 22.6 µM | 4.25 µM and 10.8 µM | 0.755 µM and 2.77 µM | 35.2 | 5.32 µM and 6.48 µM | 61.4 µM and 84.4 µM
10 | O=Nc1c2cccnc2n2nnc3ccc(Cl)cc3c12 | 6.11 µM | 4.95 µM | 6.11 | 50 µM | 14.5 µM | 4.75 µM | 8.36 µM | 1.64 µM | 9.4 | 22 | 1.25 µM | 1.72 | 0.316 µM | 0.272 µM | 1.27 µM | 1.54 µM | 2.84 µM | 0.65 | 1.8 µM | 5.5 µM
11 | O=C1NC(=O)C(c2ccccc2Cl)=C1Nc1cccc(O)c1 | > 25 µM | > 25 µM | > 25 | > 25 µM | > 25 µM | > 25 µM | > 25 µM | > 21.1 µM | > 25 | > 25 | 13.8 µM | > 25 | 7.51 µM | 4.93 µM | 2.79 µM | 2.51 µM | > 25 µM | 1.92 | 12.5 µM | 21.4 µM
12 | CC(=O)O/C(C)=C\C(=O)O/N=C(\N)c1ccc(C)cc1 | > 100 µM | > 100 µM | 43.1 | 77.3 µM | > 100 µM | > 100 µM | 93.1 µM | 99.3 µM | 91.6 | > 100 | – | – | – | – | – | – | – | – | – | –
13 | O=C1OCC2=Nc3cccc4cccc(c34)N12 | > 100 µM | > 100 µM | > 100 | > 100 µM | > 100 µM | > 100 µM | > 100 µM | > 100 µM | > 100 | > 100 | – | – | – | – | – | – | – | – | – | –
14 | CC1=C(N2CC2)C(=O)c2nc3n(c2C1=O)CCC3O (stereo not drawn) | 0.967 µM | 0.328 µM | 1.52 | 8.47 µM | 3.37 µM | 0.699 µM | 2.8 µM | 0.398 µM | 0.629 | 0.97 | – | – | – | – | – | – | – | – | – | –
15 | CC1=CC[C@@H]2C(C)(C)[C@@H](O)CC[C@@]2(C)[C@@H]1COc1ccc2ccc(=O)oc2c1 | 28 µM | 27.4 µM | 18.7 | 14 µM | 44.6 µM | 15.7 µM | 21.3 µM | 35.3 µM | 26.3 | 42.9 | 13 µM | 12.7 | 4.6 µM | 3.27 µM | 9.83 µM | 4.18 µM | 7.2 µM | 13.2 | 6.5 µM | 14.3 µM
